Experimental data published in the NIST ThermoML archive (doi:10.1016/j.jct.2015.11.023).

Assays:
[1] = wn = mass fraction of the nth substance listed; settings: for surface tension liquid-gas: Maximal bubble pressure; for mass density: 100 kPa, Liquid, Vibrating tube method
[2] = refractive index (Na D-line) (dimensionless); wn = mass fraction of the nth substance listed; settings: 100 kPa, Liquid, Standard Abbe refractometry

CCCCC[n+]1ccccc1.N#C[N-]C#N [1-pentylpyridinium dicyanamide] + O
Settings	mass density [kg/m3]	refractive index	surface tension liquid-gas [mN/m]
[1], 303.15 K, w2 = 0.00124	1049.94	–	–
[1], 303.15 K, w2 = 0.00159	–	–	53.3
[1], 303.15 K, w2 = 0.00269	1049.85	–	–
[1], 303.15 K, w2 = 0.00309	–	–	53.7
[1], 303.15 K, w2 = 0.00423	1049.72	–	–
[1], 303.15 K, w2 = 0.00463	–	–	54
[1], 303.15 K, w2 = 0.00567	1049.59	–	–
[1], 303.15 K, w2 = 0.00611	–	–	54.3
[1], 303.15 K, w2 = 0.00714	1049.48	–	–
[1], 303.15 K, w2 = 0.00762	–	–	54.6
[1], 308.15 K, w2 = 0.00124	1046.92	–	–
[1], 308.15 K, w2 = 0.00159	–	–	53.1
[1], 308.15 K, w2 = 0.00269	1046.83	–	–
[1], 308.15 K, w2 = 0.00309	–	–	53.3
[1], 308.15 K, w2 = 0.00423	1046.7	–	–
[1], 308.15 K, w2 = 0.00463	–	–	53.7
[1], 308.15 K, w2 = 0.00567	1046.57	–	–
[1], 308.15 K, w2 = 0.00611	–	–	54
[1], 308.15 K, w2 = 0.00714	1046.45	–	–
[1], 308.15 K, w2 = 0.00762	–	–	54.3
[1], 313.15 K, w2 = 0.00124	1043.92	–	–
[1], 313.15 K, w2 = 0.00159	–	–	52.8
[1], 313.15 K, w2 = 0.00269	1043.82	–	–
[1], 313.15 K, w2 = 0.00309	–	–	53
[1], 313.15 K, w2 = 0.00423	1043.69	–	–
[1], 313.15 K, w2 = 0.00463	–	–	53.4
[1], 313.15 K, w2 = 0.00567	1043.56	–	–
[1], 313.15 K, w2 = 0.00611	–	–	53.7
[1], 313.15 K, w2 = 0.00714	1043.44	–	–
[1], 313.15 K, w2 = 0.00762	–	–	54
[1], 318.15 K, w2 = 0.00124	1040.93	–	–
[1], 318.15 K, w2 = 0.00159	–	–	52.4
[1], 318.15 K, w2 = 0.00269	1040.82	–	–
[1], 318.15 K, w2 = 0.00309	–	–	52.7
[1], 318.15 K, w2 = 0.00423	1040.7	–	–
[1], 318.15 K, w2 = 0.00463	–	–	53
[1], 318.15 K, w2 = 0.00567	1040.56	–	–
[1], 318.15 K, w2 = 0.00611	–	–	53.3
[1], 318.15 K, w2 = 0.00714	1040.44	–	–
[1], 318.15 K, w2 = 0.00762	–	–	53.6
[1], 323.15 K, w2 = 0.00124	1037.95	–	–
[1], 323.15 K, w2 = 0.00159	–	–	52.1
[1], 323.15 K, w2 = 0.00269	1037.84	–	–
[1], 323.15 K, w2 = 0.00309	–	–	52.3
[1], 323.15 K, w2 = 0.00423	1037.72	–	–
[1], 323.15 K, w2 = 0.00463	–	–	52.7
[1], 323.15 K, w2 = 0.00567	1037.57	–	–
[1], 323.15 K, w2 = 0.00611	–	–	53
[1], 323.15 K, w2 = 0.00714	1037.45	–	–
[1], 323.15 K, w2 = 0.00762	–	–	53.3
[1], 328.15 K, w2 = 0.00124	1034.99	–	–
[1], 328.15 K, w2 = 0.00159	–	–	51.8
[1], 328.15 K, w2 = 0.00269	1034.88	–	–
[1], 328.15 K, w2 = 0.00309	–	–	52
[1], 328.15 K, w2 = 0.00423	1034.75	–	–
[1], 328.15 K, w2 = 0.00463	–	–	52.4
[1], 328.15 K, w2 = 0.00567	1034.61	–	–
[1], 328.15 K, w2 = 0.00611	–	–	52.7
[1], 328.15 K, w2 = 0.00714	1034.48	–	–
[1], 328.15 K, w2 = 0.00762	–	–	53
[1], 333.15 K, w2 = 0.00124	1032.05	–	–
[1], 333.15 K, w2 = 0.00159	–	–	51.5
[1], 333.15 K, w2 = 0.00269	1031.93	–	–
[1], 333.15 K, w2 = 0.00309	–	–	51.8
[1], 333.15 K, w2 = 0.00423	1031.8	–	–
[1], 333.15 K, w2 = 0.00463	–	–	52.1
[1], 333.15 K, w2 = 0.00567	1031.65	–	–
[1], 333.15 K, w2 = 0.00611	–	–	52.4
[1], 333.15 K, w2 = 0.00714	1031.52	–	–
[1], 333.15 K, w2 = 0.00762	–	–	52.7
[1], 338.15 K, w2 = 0.00124	1029.11	–	–
[1], 338.15 K, w2 = 0.00159	–	–	51.3
[1], 338.15 K, w2 = 0.00269	1029	–	–
[1], 338.15 K, w2 = 0.00309	–	–	51.6
[1], 338.15 K, w2 = 0.00423	1028.86	–	–
[1], 338.15 K, w2 = 0.00463	–	–	51.9
[1], 338.15 K, w2 = 0.00567	1028.71	–	–
[1], 338.15 K, w2 = 0.00611	–	–	52.2
[1], 338.15 K, w2 = 0.00714	1028.58	–	–
[1], 338.15 K, w2 = 0.00762	–	–	52.4
[2], 303.15 K, w2 = 0.00159	–	1.5285	–
[2], 303.15 K, w2 = 0.00322	–	1.5282	–
[2], 303.15 K, w2 = 0.00513	–	1.5279	–
[2], 303.15 K, w2 = 0.00661	–	1.5277	–
[2], 303.15 K, w2 = 0.00821	–	1.5274	–
[2], 308.15 K, w2 = 0.00159	–	1.527	–
[2], 308.15 K, w2 = 0.00322	–	1.5268	–
[2], 308.15 K, w2 = 0.00513	–	1.5265	–
[2], 308.15 K, w2 = 0.00661	–	1.5263	–
[2], 308.15 K, w2 = 0.00821	–	1.5261	–
[2], 313.15 K, w2 = 0.00159	–	1.5255	–
[2], 313.15 K, w2 = 0.00322	–	1.5253	–
[2], 313.15 K, w2 = 0.00513	–	1.525	–
[2], 313.15 K, w2 = 0.00661	–	1.5248	–
[2], 313.15 K, w2 = 0.00821	–	1.5245	–
[2], 318.15 K, w2 = 0.00159	–	1.5241	–
[2], 318.15 K, w2 = 0.00322	–	1.5239	–
[2], 318.15 K, w2 = 0.00513	–	1.5236	–
[2], 318.15 K, w2 = 0.00661	–	1.5234	–
[2], 318.15 K, w2 = 0.00821	–	1.5232	–
[2], 323.15 K, w2 = 0.00159	–	1.5228	–
[2], 323.15 K, w2 = 0.00322	–	1.5225	–
[2], 323.15 K, w2 = 0.00513	–	1.5222	–
[2], 323.15 K, w2 = 0.00661	–	1.522	–
[2], 323.15 K, w2 = 0.00821	–	1.5217	–
[2], 328.15 K, w2 = 0.00159	–	1.521	–
[2], 328.15 K, w2 = 0.00322	–	1.5208	–
[2], 328.15 K, w2 = 0.00513	–	1.5205	–
[2], 328.15 K, w2 = 0.00661	–	1.5203	–
[2], 328.15 K, w2 = 0.00821	–	1.5201	–
[2], 333.15 K, w2 = 0.00159	–	1.5192	–
[2], 333.15 K, w2 = 0.00322	–	1.519	–
[2], 333.15 K, w2 = 0.00513	–	1.5188	–
[2], 333.15 K, w2 = 0.00661	–	1.5186	–
[2], 333.15 K, w2 = 0.00821	–	1.5184	–
[2], 338.15 K, w2 = 0.00159	–	1.5177	–
[2], 338.15 K, w2 = 0.00322	–	1.5175	–
[2], 338.15 K, w2 = 0.00513	–	1.5172	–
[2], 338.15 K, w2 = 0.00661	–	1.517	–
[2], 338.15 K, w2 = 0.00821	–	1.5168	–
